The values that follow come from paper PMC6345779, “Hypoculoside, a sphingoid base-like compound from Acremonium disrupts the membrane integrity of yeast cells” (Scientific Reports, 2019).

For experiment [1], the system named is Saccharomyces cerevisiae diploid wild-type strain (BY4743). Description: Growth inhibition of wild type Saccharomyces cerevisiae in YPD medium (96-well, OD600). Format: cell-based. The conditions noted are these: for concentration that completely inhibited the growth of wild type yeast cells: 24 hours at 30 °C (Fig. 5B); for inhibitory concentration relative to inhibitory concentration of hypoculoside: wild type yeast cells, higher than hypoculoside. Here is the method: (§1) Figure 5 Structure-activity studies of hypoculoside. (A) Wild type strain (BY4743), vps35Δ, pep8Δ, vps20Δ, vps27Δ and vps36Δ strains were grown in YPD medium in the presence of hypoculoside or hypoculine at the indicated concentrations. Normalized growth at the different concentrations of hypoculoside and hypoculine tested after 24 hours of incubation at 30 °C is plotted for each strain. (B) Wild type strain (BY4743), vps35Δ, pep8Δ, vps20Δ, vps27Δ and vps36Δ strains were grown in YPD medium in the presence of hypoculoside or phytosphingosine or dihydrosphingosine at the indicated concentrations. Normalized growth at the different concentrations of hypoculoside, phytosphingosine and dihydrosphingosine tested after 24 hours of incubation at 30 °C is plotted for each strain.
Susceptibility of Candida albicans strain SC5314 to hypoculoside and amphotericin B was determined by a broth microdilution assay using Clinical Laboratory Standards Institute (CLSI) guidelines. Cells grown to exponential phase in YPD medium (1% Yeast extract, 2% Bacto peptone and 2% glucose) were harvested, washed and resuspended in RPMI 1640 medium at a density of 2×10^3 cells/mL. RPMI 1640 medium with L-glutamine without sodium bicarbonate (Sigma) was buffered with 0.165 M morpholinepropanesulfonic acid (MOPS) to a pH of 7.0. Two-fold dilutions of hypoculoside and amphotericin B were prepared such that final concentration of DMSO was 1% in all cultures. Cell suspension was distributed in microtiter plate (200 µL/well) and incubated at 35 °C with 220 rpm for 24 h. The Saccharomyces cerevisiae diploid wild-type strain (BY4743) was used for determining the Inhibitory Concentration (IC) of hypoculoside. Frozen yeast cells were allowed to recover on YPD agar plates and grown in YPD medium for nine generations (OD600 nm ≤ 2). Cells were diluted to OD600 nm of 0.0625 in YPD medium. 200 μL of the diluted yeast culture was transferred into the 96-well microtiter plate having 2-fold serially diluted concentrations of hypoculoside. Cells were incubated in a microplate reader for 16–24 hours at 30 °C with shaking. IC of hypoculoside was computed by comparing the growth of treated versus control cells.

For experiment [2], the system named is vps35Δ, pep8Δ, vps20Δ, vps27Δ and vps36Δ strains. Briefly: Single-mutant sensitivity growth assay of deletion strains in YPD medium. In kind it is cell-based, Saccharomyces cerevisiae. The conditions noted are these: for growth of the 5 hypoculoside-sensitive mutants compared with wild type strain: 20 µM, vps35, pep8, vps20, vps27, vps36. The procedure:
Figure 3 Homozygous profiling of hypoculoside in Saccharomyces cerevisiae. (A) logFC (Fitness Coefficient) was plotted against P-value for the 3702 mutants that were analyzed by HOP. The more negative the logFC value of a mutant, more sensitive is the mutant to hypoculoside. Mutants that have logFC < −0.5 and P-value < 0.05 are indicated by red dots and the remaining strains are indicated as blue dots. For the sake of clarity, gene names of only a subset of the top hits are indicated in the plot. (B) Wild type strain BY4743 and 24 deletion strains that were sensitive to hypoculoside in the HOP assay, were grown in the YPD medium in the presence of either DMSO or hypoculoside at different concentrations (0, 0.6, 1.3, 2.7 and 5.5 µM). Normalized growth at the different concentrations of hypoculoside tested after 24 hours of incubation at 30 °C is plotted for each strain.
To test the validity of our HOP data, we first identified 336 ‘hypoculoside-sensitive’ mutants (Supplementary Table S1) that had at least a 1.4-fold inhibitory effect on their growth rate (i.e. logFC ≤ −0.5) with a P-value ≤ 0.05. From the list of 336 mutants, we chose 24 mutants that represent different Gene Ontology categories (see below) and tested their sensitivity to hypoculoside. Eighteen of the total 24 mutants were sensitive to hypoculoside confirming the HOP data (Fig. 3B). We also tested mutants that were predicted to be resistant to hypoculoside (positive logFC ≥ 0.5 and P-value ≤ 0.05). But none of them were resistant to hypoculoside in comparison to wild type strain in the single-mutant sensitivity assays (data not shown).
as §1

Experiment [3] relates to Wild type strain (BY4743). Briefly: Rescue of myriocin-induced growth inhibition in yeast. In kind it is cell-based, Saccharomyces cerevisiae. To be noted: for rescue of myriocin-induced inhibition: added at 10 μM. The procedure:
Myriocin is an inhibitor of Serine palmitoyltransferase (SPT), which catalyzes the first step in the synthesis of sphingolipid biosynthesis. Addition of PHS or DHS can rescue inhibition caused by myriocin[28]. We tested whether hypoculoside can rescue the toxicity of myriocin–treated cells.
Wild type strain (BY4743) was grown in YPD medium containing different concentrations of myriocin and either phytosphingosine (PHS) or dihydrosphingosine (DHS) or hypoculoside (HYP) at the indicated concentrations. Normalized growth at the different concentrations after 24 hours of incubation at 30 °C is plotted for the various cultures.

Another experiment relates to Staphylococcus aureus. Also noted: method as in PMID 23128426. To be noted: also disrupt cell membrane; cited from earlier work.
For the next experiment, the system named is fungi. Set-up: method as in PMID 10654417. To be noted: cited from earlier work.
For experiment [4], the system named is Candida albicans strain SC5314. Description: Broth microdilution growth inhibition of Candida albicans (CLSI guidelines, OD600 after 24 h). In kind it is cell-based. The conditions noted are these: strain SC5314, OD600 nm after 24 hours, read-out: IC50 for inhibition of growth of C. albicans cells. Here is the method:
Figure 2 Hypoculoside has antifungal activity. (A) Workflow used in the purification and analysis of hypoculoside from Acremonium sp. F2434. (B) Structure of hypoculoside (8) and its aglycone derivative hypoculine (9). (C) Logarithmically growing Candida albicans cells were exposed to hypoculoside and amphotericin B at various concentrations in triplicates in a 96-well microplate. Growth of the cells was quantified by recording the absorbance at 600 nm after 24 hours. Growth (normalized with respect to DMSO-treated cells) is plotted against log of concentration of the compound. A picture of the microplate after 24 hours of incubation at 30 °C is shown in Supplementary Fig. S2A. (D) Effect of hypoculoside on the growth of Saccharomyces cerevisiae cells grown in YPD medium was analyzed in the similar way as for Candida albicans described above in C.
We evaluated the potency of hypoculoside by examining its effect on the growth of Candida albicans strain (SC5314) using the Clinical and Laboratory Standards Institute (CLSI) guidelines. We used the well-known antifungal amphotericin B as a positive control. We exposed logarithmically growing Candida albicans cells to hypoculoside and amphotericin B at various concentrations and monitored the growth by recording the OD600 nm after 24 hours. […]

Experiment [5] relates to vacuoles of wild type yeast cells. Briefly: FM 4-64 fluorescence microscopy of vacuolar structure. In kind it is cell-based, Saccharomyces cerevisiae. To be noted: 11.6 µM, FM 4-64 pre-labelled wild type cells, N = 100 cells. The procedure:
As several vacuolar transport mutants were sensitive to hypoculoside (Fig. 3), we examined the effect of hypoculoside on the vacuolar structure of yeast cells. We incubated wild type yeast cells with FM 4–64, a dye that stains the vacuolar membranes, for 1 hour. We then washed off the excess FM 4–64 from the medium and transferred the cells into fresh medium with either hypoculoside or hypoculine or DMSO. […] In contrast, about 50% of 11.6 µM hypoculoside-treated cells had defective vacuoles (Fig. 7B). However, only 3% of 11.6 µM hypoculine-treated cells had defective vacuoles. Thus, the effect of hypoculoside and hypoculine on vacuolar structure correlates with their inhibitory activities.
Figure 7 Hypoculoside but not hypoculine disrupts the vacuolar structure of yeast cells. Wild type yeast cells containing vacuoles pre-labelled with the lipophilic dye FM 4-64 were exposed to either DMSO or hypoculoside or hypoculine at the indicated concentrations for 1 hour. Effects of the compounds on vacuolar morphology was analyzed by fluorescence microscopy. […] (B) Quantification of the various categories for cells treated with either DMSO or hypoculoside or hypoculine is plotted (N = 100 cells). […]
Labeling of yeast cells with FM4-64 (Invitrogen) was done as previously reported. […] The images were acquired using an inverted fluorescence microscope ZEISS LSM 5 LIVE (Carl Zeiss, Oberkochen, Germany).

In a further experiment the test system is BY4743 cells. Description: Propidium iodide (PI)-staining assay of plasma membrane integrity. To be noted: 1.8, 3.5 and 5.3 µM, 30′ and 2 hours. Format: cell-based, Saccharomyces cerevisiae. Here is the method: Figure 8 Hypoculoside but not hypoculine disrupts the membrane integrity of yeast cells. (A) Wild type yeast cells pre-treated with either DMSO or hypoculoside (5.4 μM) were exposed to FM 4-64FX. Uptake of FM 4-64FX after 0′, 30′ and 120′ was analyzed by fluorescence microscopy of fixed cells. (B) Yeast cells were incubated with either DMSO or hypoculoside or hypoculine at different concentrations (1.8, 3.5 and 5.3 µM) for 30′ and 2 hours. They were then treated with propidium iodide (PI) and percentage of PI-staining cells was assayed by fluorescence microscopy. Representative images of cells visualized by bright field and fluorescence microscopy are shown along with quantification of PI-staining cells (N = 100 cells) in (C).
We then tested whether hypoculoside causes membrane leakage using the membrane impermeant dye propidium iodide (PI). […] We then incubated the cells with PI and visualized its uptake by fluorescence microscopy. […]
BY4743 cells (OD600 nm ≈ 1) were exposed to various concentrations of hypoculoside or hypoculine or DMSO in YPD for 30′ and 2 hours. […] PI uptake by cells was assayed by bright-field and fluorescence microscopy [Excitation/Emission (nm): 535/617] and the percentage of PI-staining cells (N ≥ 100) was calculated.

The test system of the next experiment is cancer cell lines. Set-up: method as in PMID 18343365. To be noted: cited from earlier work.

For `CCCCCCCCCCCCCCC[C@@H](O)[C@@H](N)CO` [DHS, dihydrosphingosine, reference compound], the “concentration that completely inhibited the growth of wild type yeast cells” value in experiment [1] (BY4743, YPD) stood at 40 µM. Besides, the “inhibitory concentration relative to inhibitory concentration of hypoculoside” value in [1] is listed as “about 4 fold”. Also, the “growth of the 5 hypoculoside-sensitive mutants compared with wild type strain” value in [2] is recorded as “lower in comparison to wild type strain”. For the same compound, the “rescue of myriocin-induced inhibition” value in experiment [3] is given as “completely rescued”. The “growth inhibition of Staphylococcus aureus” value (from here on “growth inhibition”) with Staphylococcus aureus is recorded as “inhibit the growth”.

On to `CCCCCCC(=O)CCCCCC/C=C/C[C@@H](O)[C@H](O)[C@@](N)(CO)C(=O)O` [Myriocin], for which, in [3] (wild type BY4743, YPD, 24 hours at 30 °C), the “concentration that inhibited the growth of yeast cells” value came out at 3.11 µM.

For the compound `C[C@@H](N)[C@H](O)CCCCCCCCCCCCCCC(=O)CCCCCCC[C@@H](O)[C@@H](N)CO` [Oceanin], the “toxicity to fungi compared with oceanapiside” value in the experiment with fungi is listed as “considerably more toxic to fungi”.

Consider `CCCCCCCCCCCCCC[C@@H](O)[C@@H](O)[C@@H](N)CO` [PHS, phytosphingosine, reference compound], for which the “concentration that completely inhibited the growth of wild type yeast cells” value in experiment [1] (BY4743, YPD) turned out to be 40 µM. Further, in experiment [1], the “inhibitory concentration relative to inhibitory concentration of hypoculoside” value is reported as “about 4 fold”. Also, the “growth of the 5 hypoculoside-sensitive mutants compared with wild type strain” value in experiment [2] was “lower in comparison to wild type strain”. In addition, the “rescue of myriocin-induced inhibition” value in [3] is “completely rescued”. Further, in the experiment on Staphylococcus aureus, the “growth inhibition” value was “inhibit the growth”.

Take `C[C@@H]1[C@H](O)[C@@H](C)/C=C/C=C/C=C/C=C/C=C/C=C/C=C/[C@H](O[C@@H]2O[C@H](C)[C@@H](O)[C@H](N)[C@@H]2O)C[C@@H]2O[C@](O)(C[C@@H](O)C[C@@H](O)[C@H](O)CC[C@@H](O)C[C@@H](O)CC(=O)O[C@H]1C)C[C@H](O)[C@H]2C(=O)O` [amphotericin B, reference compound]: in [4], the 50% inhibitory concentration (IC50) (as a rule, the concentration at which inhibition is half-maximal) stood at 0.032 µM.

As to `CC(N)C(O)CCCCCCCCCCCCCCCCCCC(O)C(C)O` (stereo not shown) [hypoculine], the “concentration that inhibited the growth of wild type cells” value in experiment [1] (BY4743, YPD, 24 hours at 30 °C (Fig. 5A)) is over 200 µM. Also, the “concentration at which mutants still displayed significant growth” value in experiment [2] (mutants except for pep8 and vps35 (vps20, vps27, vps36), YPD, 24 hours at 30 °C) was over 200 µM. In addition, the “cells with defective vacuoles” value in experiment [5] came to 3%. Besides, the “cells with PI staining” value in the experiment with BY4743 cells is “less than 10%”.

Take `CCCCCCCCCCCCC/C=C/[C@@H](O)[C@@H](N)CO` [sphingosine, (2S,3R,4E)-2-amino-4-octadecen-1,3-diol]: the “growth inhibition” value in the experiment on Staphylococcus aureus is “inhibit the growth”.

As for `CCCCCCCCCCCCCCC[C@@H](O)[C@H](C)N` [spisulosine, 1-deoxysphinganine], the “activity against cancer cell lines” value in the experiment on cancer cell lines is recorded as “potent activity”.
